ChEMBL document CHEMBL4393729, “Sleep modulating agents” (Bioorg Med Chem Lett, 2019)

How the values were obtained:
[1] = Half life in human at 20 mg; assay type: ADME
[2] = Half life in human at 2250 mg administered as two doses; assay type: ADME; details: in vivo
[3] = Half life in human at 75 mg; assay type: ADME
[4] = Half life in human at 5 to 20 mg; assay type: ADME
[5] = Half life in human at 5 mg administered three times in a day; assay type: ADME; details: in vivo
[6] = Half life in human at 1 mg; assay type: ADME
[7] = Half life in human at 200 mg; assay type: ADME
[8] = Half life in human at 75 to 300 mg; assay type: ADME
[9] = Half life in human at 20 to 50 mg; assay type: ADME
[10] = Half life in human at 18 to 36 mg; assay type: ADME
[11] = Half life in human at 300 mg bid; assay type: ADME; details: in vivo
[12] = Half life in human at 150 mg; assay type: ADME
[13] = Half life in human at 25 to 400 mg
[14] = Half life in human at 1 to 3 mg; assay type: ADME
[15] = Half life in human at 1 to 2 mg; assay type: ADME
[16] = Oral bioavailability in human; assay type: ADME, organism-based; details: in vivo
[17] = Half life in human at 8 mg treated 30 mins before bedtime; assay type: ADME; details: in vivo
[18] = Half life in human at 1 to 6 mg; assay type: ADME
[19] = Half life in human up to 3600 mg; assay type: ADME
[20] = Half life in human at 5 to 10 mg; assay type: ADME
[21] = Half life in human; assay type: ADME

`CNCCC(Oc1ccc(C(F)(F)F)cc1)c1ccccc1` (stereo unspecified) [FLUOXETINE] showed a half-life [1] of 24 to 96 h.
For `O=C([O-])CCCO.[Na+]` [SODIUM OXYBATE], the half-life [2] was 0.6 h.
`CN(C)CC(c1ccc(O)cc1)C1(O)CCCCC1` (stereo unspecified) [DESVENLAFAXINE] showed a half-life [3] of 11 h.
With `COc1ccc(C(CN(C)C)C2(O)CCCCC2)cc1` (stereo unspecified) [VENLAFAXINE] the half-life [3] was 5 h.
`Cc1ccc(-n2nccn2)c(C(=O)N2CCN(c3nc4cc(Cl)ccc4o3)CC[C@H]2C)c1` [SUVOREXANT] gave a half-life [4] of 9 to 13 h.
Molecule `NC[C@H](CC(=O)O)c1ccc(Cl)cc1` [ARBACLOFEN] has a half-life [5] of 2 to 4 h.
For `CCOC(=O)c1ncn2c1CN(C)C(=O)c1cc(F)ccc1-2` [FLUMAZENIL], the half-life [6] was 0.6 to 1.2 h.
`NC(=O)C[S@+]([O-])C(c1ccccc1)c1ccccc1` [(S)-MODAFINIL] showed a half-life [7] of 4 h.
Molecule `NC(=O)OC[C@H](N)Cc1ccccc1` [SOLRIAMFETOL] has a half-life [8] of 6 to 8 h.
Work on `COc1ccc2[nH]cc(CCNC(=O)c3cc(=O)cco3)c2c1` [PIROMELATINE] yielded a half-life [9] of 1 to 3 h.
`Clc1ccc(CCCOCCCN2CCCCC2)cc1` [PITOLISANT] gave a half-life [10] of 10 h.
`CC[C@H]1OC(=O)[C@H](C)[C@@H](O[C@H]2C[C@@](C)(OC)[C@@H](O)[C@H](C)O2)[C@H](C)[C@@H](O[C@@H]2O[C@H](C)C[C@H](N(C)C)[C@H]2O)[C@](C)(OC)C[C@@H](C)C(=O)[C@H](C)[C@@H](O)[C@]1(C)O` [CLARITHROMYCIN] showed a half-life [11] of 5 to 7 h.
In the case of `NC(=O)C[S@@+]([O-])C(c1ccccc1)c1ccccc1` [ARMODAFINIL], the half-life [7] is reported as 15 h and the half-life [12] is reported as 15 h.
`OCCOCCN1CCN(C2=Nc3ccccc3Sc3ccccc32)CC1` [QUETIAPINE] showed a half-life [13] of 6 h.
`CN1CCN(C(=O)O[C@H]2c3nccnc3C(=O)N2c2ccc(Cl)cn2)CC1` [ESZOPICLONE] showed a half-life [14] of 6 h.
In the case of `Clc1ccc2c(c1)C(c1ccccc1)=NCc1nncn1-2` [ESTAZOLAM], the half-life [15] is reported as 10 to 24 h.
Work on `CCC(=O)NCC[C@@H]1CCc2ccc3c(c21)CCO3` [RAMELTEON] yielded a bioavailability [16] of 1.8% and a half-life [17] of 1 to 2.6 h.
With `OC1(c2ccc(Cl)cc2)c2ccccc2C2=NCCN21` (stereo unspecified) [MAZINDOL] the half-life [14] was 10 to 13 h.
In the case of `CN(C)CC/C=C1\c2ccccc2COc2ccccc21` [E-DOXEPIN], the half-life [18] is reported as 8 to 24 h.
`NCC1(CC(=O)O)CCCCC1` [GABAPENTIN] showed a half-life [19] of 5 to 7 h.
With `CCC(=O)NC[C@@H]1C[C@H]1c1cccc2c1CCO2` [TASIMELTEON] the half-life [1] was 0.9 to 1.7 h.
For `Cc1ccc(-c2nc3ccc(C)cn3c2CC(=O)N(C)C)cc1` [ZOLPIDEM], the half-life [20] was 1.4 to 4.5 h.
With `NCCC(Oc1ccc(C(F)(F)F)cc1)c1ccccc1` (stereo unspecified) [NORFLUOXETINE] the half-life [21] was 360 to 408 h.
`COC(=O)C(c1ccccc1)C1CCCCN1` (stereo unspecified) [METHYLPHENIDATE] showed a half-life [1] of 2 h.
